Laboratory results published in patent US5670510A, “Pyridyl substituted spirodienes for the treatment of inflammation” (G. D. Searle & Co., priority 1996, dated 1997).

Key:
cyclooxygenase II = settings: literature: Meade et al; Futaki et al; cited from earlier work
[1] = tested on: carrageenan-induced foot edema; test: Rat Carrageenan Foot Pad Edema Test; type: in vivo, Male Sprague-Dawley rats; settings: oral, 3 h after carrageenan injection
Protocol: Rat Carrageenan Foot Pad Edema Test
The carrageenan foot edema test was performed with materials, reagents and procedures essentially as described by Winter, et al. (Proc. Soc. Exp. Biol. Med., 11, 544 (1962)). Male Sprague-Dawley rats were selected in each group so that the average body weight was as close as possible. Rats were fasted with free access to water for over sixteen hours prior to the test. The rats were dosed orally (1 mL) with compounds suspended in vehicle containing 0.5% methylcellulose and 0.025% surfactant, or with vehicle alone. One hour later a subplantar injection of 0.1 mL of 1% solution of carrageenan/sterile 0.9% saline was administered and the volume of the injected foot was measured with a displacement plethysmometer connected to a pressure transducer with a digital indicator. Three hours after the injection of the carrageenan, the volume of the foot was again measured. The average foot swelling in a group of drug-treated animals was compared with that of a group of placebo-treated animals and the percentage inhibition of edema was determined (Ottertess and Bliven, Laboratory Models for Testing NSAIDs, in Non-steroidal Anti-inflammatory Drugs, (J. Lombardino, ed. 1985)).

COX I = settings: read-out: COX I ID50; arachidonic acid 10 μM; pH 8.0; pre-incubated 10-20 minutes
Protocol: Recombinant baculoviruses were isolated by transfecting 4 μg of baculovirus transfer vector DNA into SF9 insect cells ([…]) along with 200 ng of linearized baculovirus plasmid DNA by the calcium phosphate method. […] Exp. Station Bull. 1555 (1987). Recombinant viruses were purified by three rounds of plaque purification and high titer (10E7-10E8 pfu/ml) stocks of virus were prepared. For large scale production, SF9 insect cells were infected in 10 liter fermentors (0.5×10^6 /ml) with the recombinant baculovirus stock such that the multiplicity of infection was 0.1. After 72 hours the cells were centrifuged and the cell pellet homogenized in Tris/Sucrose (50 mM: 25%, pH 8.0) containing 1% 3-[(3-cholamidopropyl)dimethylammonio]-1-propanesulfonate (CHAPS). The homogenate was centrifuged at 10,000×G for 30 minutes, and the resultant supernatant was stored at -80° C. before being assayed for COX activity.
COX activity was assayed as PGE2 formed/μg protein/time using an ELISA to detect the prostaglandin released. CHAPS-solubilized insect cell membranes containing the appropriate COX enzyme were incubated in a potassium phosphate buffer (50 mM, pH 8.0) containing epinephrine, phenol, and heme with the addition of arachidonic acid (10 μM). […] The PGE2 formed was measured by standard ELISA technology (Cayman Chemical).

[2] = tested on: carrageenan-induced hyperalgesic foot withdrawal; test: Rat Carrageenan-induced Analgesia Test; type: in vivo, Male Sprague-Dawley rats; settings: oral, inhibition of hyperalgesic foot withdrawal 3 h after carrageenan
Protocol: Rat Carrageenan-induced Analgesia Test
The rat carrageenan analgesia test was performed with materials, reagents and procedures essentially as described by Hargreaves, et al. (Pain, 32, 77 (1988)). Male Sprague-Dawley rats were treated as previously described for the Carrageenan Foot Pad Edema test. Three hours after the injection of the carrageenan, the rats were placed in a special plexiglass container with a transparent floor having a high intensity lamp as a radiant heat source, positionable under the floor. After an initial twenty minute period, thermal stimulation was begun on either the injected foot or on the contralateral uninjected foot. A photoelectric cell turned off the lamp and timer when light was interrupted by paw withdrawal. The time until the rat withdraws its foot was then measured. The withdrawal latency in seconds was determined for the control and drug-treated groups, and percent inhibition of the hyperalgesic foot withdrawal determined.

[3] = literature: Futaki et al; cited from earlier work

## COc1ccc2cc(CC(=O)O)ccc2c1 [6-methoxy-2-napthylacetic acid]
Cyclooxygenase II
  inhibition of COX II enzyme: selectively inhibit the COX II enzyme

## CS(=O)(=O)c1ccc(C2=CC3(C=C2c2ccc(F)cc2)CC3)cc1 [Example 1, 5-(4-Fluorophenyl)-6-[4-(methylsulfonyl)phenyl]spiro[2.4]hepta-4,6-diene]
[1]
  RAT PAW EDEMA % Inhibition @ 30 mg/kg body weight: 49%
COX I
  IC50: 1300 nM
[2]
  ANALGESIA % Inhibition @ 10 mg/kg body weight: 94%

## CS(=O)(=O)Nc1ccc([N+](=O)[O-])cc1OC1CCCCC1 [N-(2-cyclohexyloxy-4-nitrophenyl)methanesulfonamide]
[3]
  gastric side effects: lacks gastric side effects
Cyclooxygenase II
  inhibition of COX II enzyme: inhibits cyclooxygenase II
